Measured values from US5212165A, “Method for rehabilitating the vasorelaxant action of the coronary arteries impaired through atherosclerosis or hypercholesterolemia employing an ACE inhibitor” (E. R. Squibb & Sons, Inc., priority 1989, dated 1993).
Like-named read-outs stand apart in the source and are kept apart here. No end group written: not given here.

Key:
[1] = tested on: voltage-dependent calcium channels (iliac rings); test: Relaxation responses to nifedipine of CaCl2-contracted iliac rings from cynomolgus monkeys; set-up: species or system cynomolgus (Macaca fascicularis) monkeys; conditions: Macaca fascicularis, contracted with 2.5 mM CaCl2 in K^+ PSS, mean±SEM
From the text: (§1) Twenty-four male cynomolgus (Macaca fascicularis) monkeys were divided into four groups of six animals each. During the course of the study, one of the control monkeys was sacrificed due to ill health unrelated to the study. Each group was fed a different diet for six months. The control group ate a normal diet of monkey biscuit. The cholesterol group ate a specially formulated monkey diet containing cholesterol. The cholesterol +low captopril group ate the cholesterol diet supplemented with captopril (50 mg/kg divided into two daily doses). The cholesterol+high captopril group ate the cholesterol diet and a higher total dose of captopril (100 mg/kg divided into two daily doses).
(§2) The monkeys were sedated with an intramuscular injection of ketamine (10 mg/kg), then anesthetized with pentobarbital (25 mg/kg). The iliac arteries were carefully dissected, cleaned of surrounding connective tissue, and refrigerated overnight for use the following day.
(§3) On the day of the experiment, three iliac rings (3 mm wide) from each animal were cut and mounted for isometric force recording. Each ring was attached to a micrometer for the control of muscle length and to a Grass FT.03 force transducer and Grass 7D recorder. The rings were placed in warm (37° C.), oxygenated, physiological salt solution (PSS) of the following composition (in mM): 140.0 NaCl, 4.7 KCl, 1.2 MgSO4, 1.6 CaCl2, 1.2 NaH2 PO4, 5.6 D-glucose, 2.0 2-(N-morpholino)propanesulfonic acid (MOPS, pH 7.4 at 37° C.), and 0.02 Na2 -ethylenediaminetetraacetic acid (EDTA). The rings were stretched to a preload of 5 g during a 2 hour equilibration period, then stimulated with 1 μM phenylephrine to test for viability and relaxed with 100 nM acetylcholine to test for endothelial function. Stock solutions of phenylphrine, acetylcholine, propranolol, and sodium nitroprusside were prepared daily in water; nifedipine stock solutions were prepared daily in ethanol.
(§4) The voltage-dependent calcium channels were studied in one ring from each monkey. The protocol consisted of depleting the cells of calcium by exposing the rings to a Ca-free, EGTA (ethylene glycol-bis(β-aminoethyl ether)N,N,N',N'-tetraacetic acid) PSS (omission of CaCl2 and addition of 0.1 mM EGTA) for 30 minutes. The EGTA was subsequently removed from the tissues with three washes of Ca-free PSS (simple omission of CaCl2). Following that, the rings were bathed in Ca-free, K^+ PSS (omission of CaCl2 and isoosmotic substitution of KCl for NaCl such that the KCl concentration was 110 mM) for 30 minutes. A CaCl2 concentration-response curve was obtained by replacing the bath solution with K^+ PSS containing incremental increases in CaCl2 concentration (0.1, 0.3, 0.5, 1.0, 1.25, 1.6, and 2.5 mM). The maximal contractions, in response to 2.5 mM CaCl2, were then relaxed incrementally with nifedipine. Another iliac ring (fade control) from each monkey was subjected to the same protocol with the exception that the strips were allowed to remain contracted and the nifedipine concentration-response curve was not obtained. Some fade of the CaCl2 -induced force was observed over the time period required for the nifedipine concentration-response curve. This fade was accounted for by decreasing the amount of relaxation observed upon addition of nifedipine by the amount of fade observed in the time control from the same monkey.
Data are presented as mean±SEM. The IC50 and EC50 values were estimated by linearly interpolating from the concentration-response curves. […]

[2] = tested on: phenylephrine-contracted isolated iliac arteries; test: Acetylcholine-induced relaxation of phenylephrine-contracted isolated iliac arteries from cynomolgus monkeys; set-up: species or system cynomolgus (Macaca fascicularis) monkeys; conditions: for maximum force generated in response to phenylephrine (before acetylcholine): non-responders excluded, mean±SEM; for EC50: Macaca fascicularis, non-responder excluded, Mean ± SEM
From the text: as §1, §2, §3
(§5) Alpha-adrenoceptor and endothelial cell function were examined in the third ring from each monkey. In the presence of 0.1 μM propranolol, a cumulative concentration-response curve to phenylephrine was obtained, then the phenylephrine was washed out of the baths and the rings were allowed to relax completely. The rings were subsequently contracted with an EC50 concentration of phenylephrine (1 μM) and, following stabilization of the contraction, the rings were treated with increasing concentrations of acetylcholine, followed by 100 nM sodium nitroprusside.
(§6) Data are presented as mean±SEM. The IC50 and EC50 values were estimated by linearly interpolating from the concentration-response curves. The EC50 values for each ring were used to determine the means for each treatment group.
For each monkey, the EC50 for acetylcholine relaxation was calculated by linearly interpolating from the concentration-response curves. When 50% relaxation was not achieved, the value of the EC50 was set to 30 μM a value larger than any of the experimental concentrations of acetylcholine).
Linear contrast of mean ranks in the groups were constructed with a variance estimate for the contrast based on the Kruskal-Wallis statistic (Dunn 1964).
In the analyses, the following coefficients were employed: i) for an overall test, the coefficients were 3 for the cholesterol group, 1 for the control group, -1 for the cholesterol+low captopril group, and -3 for the cholesterol+high captopril group, based on prior expectations of likely results; ii) for a test of the cholesterol effect, the coefficients were 1 for the cholesterol group, -1 for the control group, 0 for the cholestrol+low captopril group, and 0 for the cholesterol+high captopril group; iii) for a test of the captopril effect, the coefficients were 0 for the cholesterol group, 1 for the […], 0 for the cholesterol+low captopril group, and -1 for the cholesterol+high captopril group.
All statistical results reported are based on one-sided tests. […]

[3] = tested on: alpha-adrenoceptor (isolated iliac arteries); test: Contractile responses to phenylephrine of isolated iliac arteries from cynomolgus monkeys; set-up: species or system cynomolgus (Macaca fascicularis) monkeys; conditions: Mean ± SEM; for EC50: Macaca fascicularis, read-out: EC50 (phenylephrine-induced contraction)
From the text: as §1, §2, §3, §5, §6
Phenylephrine concentration-response curves were obtained in iliac rings from all groups of monkeys.

[4] = tested on: acute cerebral arteriospasm; conditions: after subarachnoid hemorrhage, dog, angiographic; cited from earlier work
[5] = tested on: delayed cerebral arteriospasm; conditions: cited from earlier work
[6] = tested on: delayed cerebral vasospasm of the basilar artery and its branches; conditions: by injection; Gavras et al; cited from earlier work
isolated rat hearts = conditions: interaction with ARG-I, ARG-II and BK; Schoelkens et al; cited from earlier work
[7] = tested on: vascular relaxation in response to EN-D (ACh) and EN-I (Na nitroprusside) agonists; conditions: rats, cited from earlier work; for vascular relaxations in response to EN-D (ACh) and EN-I (Na nitroprusside) agonists: oral
[8] = tested on: isolated aorta from hypertensive rats; conditions: cited from earlier work
angina patients = conditions: 12 angina patients; Thuermann et al; cited from earlier work
[9] = tested on: K^+ depolarized arteries (iliac rings); test: Contractile responses to CaCl2 in K^+ depolarized iliac rings from cynomolgus monkeys; set-up: species or system cynomolgus (Macaca fascicularis) monkeys; conditions: Mean ± SEM
From the text: as §1, §2, §3, §4, §6
Concentration-response curves to CaCl2 in K^+ depolarized rings were obtained following depletion of tissue calcium by repeated washing in Ca-free PSS first with, then without, EGTA. There were no differences in the responses to CaCl2 among any of the treatment groups (Table 1).

guinea pig or rat lungs = conditions: infusion through guinea pig or rat lungs; cited from earlier work
rat stomach = conditions: in vitro; cited from earlier work
rat mesenteric veins = conditions: cited from earlier work
[10] = tested on: rabbit or human platelets; conditions: in vitro; cited from earlier work
rabbit veins = conditions: in vitro; cited from earlier work

COC(=O)C1=C(C)NC(C)=C(C(=O)OC)C1c1ccccc1[N+](=O)[O-] [nifedipine]
IC50 ([1]; cholesterol group): 22.8 ± 5.6 nM
IC50 ([1]; cholesterol+high captopril group): 11.5 ± 1.8 nM
IC50 ([1]; cholesterol+low captopril group): 18.8 ± 6.6 nM
IC50 ([1]; control group): 11.4 ± 2.3 nM

CNC[C@H](O)c1cccc(O)c1 [phenylephrine]
maximum force generated in response to phenylephrine (before acetylcholine) ([2]; cholesterol group): 11.0 ± 2.6 g
maximum force generated in response to phenylephrine (before acetylcholine) ([2]; control group): 14.3 ± 1.4 g
Max Force (phenylephrine-induced contraction) ([3]; Cholesterol group): 17.3 ± 3.3 g
Max Force (phenylephrine-induced contraction) ([3]; Control group): 22.5 ± 1.6 g
EC50 ([3]; Cholesterol group): 1200 ± 300 nM
EC50 ([3]; Control group): 800 ± 100 nM

CC[C@H](C)[C@H](NC(=O)[C@H](CCC(N)=O)NC(=O)[C@@H]1CCCN1C(=O)[C@H](CCCNC(=N)N)NC(=O)[C@@H]1CCCN1C(=O)[C@H](Cc1c[nH]c2ccccc12)NC(=O)[C@@H]1CCC(=O)N1)C(=O)N1CCC[C@H]1C(=O)N1CCC[C@H]1C(=O)O [teprotide]
effect on acute cerebral arteriospasm [4]: effective
effect on delayed established cerebral arteriospasm ([5]; dog, in vivo): could reverse that spasm as well
release of delayed cerebral vasospasm [6]: partial or total release

CCOC(=O)[C@H](CCc1ccccc1)N[C@@H](C)C(=O)N1[C@H](C(=O)O)C[C@@H]2CCC[C@@H]21 [ramipril]
local cardioprotective actions (isolated rat hearts): BK is involved in the local cardioprotective actions of RP

C[C@H](N[C@@H](CCc1ccccc1)C(=O)O)C(=O)N1CCC[C@H]1C(=O)O [MK-422]
restoring arterial width in delayed cerebral arteriospasm ([5]; four dogs, injectable form, unpublished data, preliminary): at least as effective as teprotide

CC(=O)OCC[N+](C)(C)C [acetylcholine]
EC50 ([2]; Cholesterol group, N 5, EC50 set at 30 μM if <50% relaxation): 16200 ± 7200 nM
EC50 ([2]; Control group, N 4): 300 ± 100 nM

Oc1cccc(O)c1O [pyrogallol]
effect on ACh-induced relaxation [7]: did inhibit ACh-induced relaxations

CCOC(=O)C(CCc1ccccc1)N[C@@H](C)C(=O)N1CCC[C@H]1C(=O)O (stereo partly drawn) [enalapril, N-(1-ethoxycarbonyl-3-phenylpropyl)-L-alanyl-L-proline]
normalization of relaxation responses and prevention of hypertension ([8]; P.o., salt-induced hypertension, rat): ineffective
anti-ischemic effect (angina patients): shown to have an anti-ischemic effect
vascular relaxations in response to EN-D (ACh) and EN-I (Na nitroprusside) agonists [7]: differentially affected vascular relaxations

COc1ccc2c(c1)c(CC(=O)O)c(C)n2C(=O)c1ccc(Cl)cc1 [Indomethacin]
effect on relaxation responses ([8]; isolated aorta, hypertensive and normotensive rats): unaffected
effect on ACh-induced relaxation [7]: did not prevent the effect of ACh

[Ca+2].[Cl-].[Cl-] [CaCl2]
EC50 ([9]; Cholesterol group): 200000 ± 30000 nM
Max Force (CaCl2) ([9]; Cholesterol group): 18.2 ± 1.6 g
EC50 ([9]; Control group): 140000 ± 10000 nM
Max Force (CaCl2) ([9]; Control group): 18.5 ± 1.1 g

NNc1nncc2ccccc12 [hydralazine]
vascular relaxations in response to EN-D (ACh) and EN-I (Na nitroprusside) agonists [7]: differentially affected vascular relaxations

endothelin: endothelin (EL) (CSCSSLMDKECVYFCHLDIIW; ends and bridges not checked; cysteine pairing not given here; UniProt P05305 53-73, looked up)
release of PG12 and TXA2 (guinea pig or rat lungs): release PG12 and TXA2
contraction of rat stomach (rat stomach): contracted rabbit veins and rat stomach
vasoconstriction (rat mesenteric veins; at higher doses): vasoconstriction
dilatation of rat mesenteric veins (rat mesenteric veins; via EDRF release): dilated rat mesenteric veins
platelet aggregation [10]: did not aggregate rabbit or human platelets or prevent their aggregation
contraction of rabbit veins (rabbit veins): contracted rabbit veins
